Data taken from ChEMBL document CHEMBL1135016, “Inhibition of amine oxidases activity by 1-acetyl-3,5-diphenyl-4,5-dihydro-(1H)-pyrazole derivatives” (Bioorg Med Chem Lett, 2002).

What was measured:
[1] = target: T1, Monoamine oxidase (Bos taurus, UniProt P56560+P21398); experiment: Inhibitory activity against Monoamine oxidase from Bovine brain mitochondria
T1 sequence (P56560 whole entry): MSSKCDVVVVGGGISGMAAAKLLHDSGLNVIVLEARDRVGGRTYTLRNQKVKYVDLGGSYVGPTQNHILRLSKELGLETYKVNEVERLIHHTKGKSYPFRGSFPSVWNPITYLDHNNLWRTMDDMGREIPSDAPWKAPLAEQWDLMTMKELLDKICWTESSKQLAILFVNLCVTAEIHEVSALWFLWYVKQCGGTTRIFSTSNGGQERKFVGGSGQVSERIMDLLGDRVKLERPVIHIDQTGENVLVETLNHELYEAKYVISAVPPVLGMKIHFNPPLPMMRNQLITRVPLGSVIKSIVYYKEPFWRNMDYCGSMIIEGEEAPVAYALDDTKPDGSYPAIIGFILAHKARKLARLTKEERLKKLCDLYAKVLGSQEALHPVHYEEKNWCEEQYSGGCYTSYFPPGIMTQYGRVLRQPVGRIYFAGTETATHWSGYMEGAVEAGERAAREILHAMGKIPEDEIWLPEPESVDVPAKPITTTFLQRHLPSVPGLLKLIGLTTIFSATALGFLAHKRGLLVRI
T1 sequence (P21398 whole entry): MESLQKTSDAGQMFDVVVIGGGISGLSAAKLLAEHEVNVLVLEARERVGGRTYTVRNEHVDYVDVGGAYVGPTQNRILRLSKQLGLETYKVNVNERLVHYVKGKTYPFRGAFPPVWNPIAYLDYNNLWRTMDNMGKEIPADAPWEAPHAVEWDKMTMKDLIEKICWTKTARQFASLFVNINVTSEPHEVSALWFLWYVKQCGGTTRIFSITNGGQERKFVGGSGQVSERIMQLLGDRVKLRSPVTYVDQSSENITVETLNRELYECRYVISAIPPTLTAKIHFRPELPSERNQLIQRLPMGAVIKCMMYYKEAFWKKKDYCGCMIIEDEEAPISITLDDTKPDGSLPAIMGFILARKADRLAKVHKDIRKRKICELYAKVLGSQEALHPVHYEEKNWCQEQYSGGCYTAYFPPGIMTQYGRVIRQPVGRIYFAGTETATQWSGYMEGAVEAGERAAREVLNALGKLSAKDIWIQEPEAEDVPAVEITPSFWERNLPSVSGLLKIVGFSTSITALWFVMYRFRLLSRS

[2] = target: T2, Amine oxidase [flavin-containing] A (Bos taurus, UniProt P21398); experiment: Inhibiting activity of the compound was determined against bovine Monoamine oxidase A
T2 sequence (P21398 whole entry): T1 sequence (P21398 whole entry)

[3] = Inhibitory activity against Serum amine oxidase
[4] = target: T3, Amine oxidase [flavin-containing] B (Homo sapiens, UniProt P27338); experiment: Inhibiting activity of the compound was determined against human Monoamine oxidase B
T3 sequence (P27338 whole entry): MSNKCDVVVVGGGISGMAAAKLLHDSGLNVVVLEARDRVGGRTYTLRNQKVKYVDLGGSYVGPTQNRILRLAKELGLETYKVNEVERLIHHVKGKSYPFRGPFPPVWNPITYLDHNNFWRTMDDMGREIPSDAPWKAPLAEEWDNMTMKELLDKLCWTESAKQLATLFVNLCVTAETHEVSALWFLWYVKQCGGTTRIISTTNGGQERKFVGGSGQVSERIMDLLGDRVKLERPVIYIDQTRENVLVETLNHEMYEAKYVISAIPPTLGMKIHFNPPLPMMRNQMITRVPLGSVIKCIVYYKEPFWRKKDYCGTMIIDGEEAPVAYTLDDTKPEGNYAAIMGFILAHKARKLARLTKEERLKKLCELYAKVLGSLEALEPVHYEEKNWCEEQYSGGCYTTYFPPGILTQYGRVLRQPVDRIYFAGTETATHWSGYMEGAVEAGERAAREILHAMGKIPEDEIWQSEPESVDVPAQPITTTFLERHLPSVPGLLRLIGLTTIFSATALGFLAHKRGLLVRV

[5] = Inhibitory activity against Swine kidney diamine oxidase (SKDAO); No inhibition, corresponding to value >10e-4
[6] = Inhibitory activity against Serum amine oxidase; No inhibition, corresponding to value >10e-4

Compound | Ki [1] | Ki [2] | Ki [3] | Ki [4] | Ki [5] | Ki [6]
CC(=O)N1N=C(c2ccccc2O)CC1c1cccc(C)c1 (stereo unspecified) | 5500 nM | – | – | – | – | –
CC(=O)N1N=C(c2ccccc2O)CC1c1ccccc1C (stereo unspecified) | 300000 nM | – | 57000 nM | – | – | –
CC(=O)N1N=C(c2ccc(O)cc2O)CC1c1ccccc1C (stereo unspecified) | 80 nM | 52 nM | – | 30 nM | – | –
CC(=O)N1N=C(c2ccccc2)CC1c1cccc(C)c1 (stereo unspecified) | 200000 nM | – | – | – | No inhibition | No inhibition

Results, then the molecule that gave them:

Ki [1] | Ki [2] | Ki [3] | Ki [4] | Ki [5] | Ki [6] | Compound
50 nM | 13 nM | 10000 nM | 38 nM | – | – | CC(=O)N1N=C(c2ccc(O)cc2O)CC1c1cccc(C)c1 (stereo unspecified)
6000 nM | – | – | – | No inhibition | No inhibition | CC(=O)N1N=C(c2ccccc2)CC1c1ccc(Cl)cc1 (stereo unspecified)
